What was measured:
[1] = system: Asexual parasites of P. falciparum strain 3D7; assay: In vitro drug activity on asexual parasites (SYBR Green assay); assay type: cell-based, Plasmodium falciparum
How it was run: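 SYBR Green I fluorescence (ex 490, em 520 nm) was read after freeze-thaw lysis and 30 min staining at room temperature. Before that, drug-treated cultures (0.5% parasitemia, 2% hematocrit, DMSO ≤0.5%) were incubated 72 h, in duplicate.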

mTOR = mTOR (Homo sapiens, UniProt P42345); assay: mTOR activity (no method described); assay type: biochemical
Solubility at pH 7.4 = assay type: physicochemical
[2] = Microsomal stability (rat); assay type: in vitro ADME; details: rat microsomes
[3] = system: Stage III-V gametocytes (blood stage P. falciparum parasites); assay: In vitro drug activity on gametocytes (AlamarBlue viability assay); assay type: cell-based, Plasmodium falciparum; details: for EC50: read-out: Gametocyte EC50
Protocol: Cell culture. Asexual parasites of P. falciparum strain 3D7 were cultured as described previously [Trager W, et al., Journal of Parasitology 2005, 91: 484-486], Stage III-V gametocytes were selected and enriched with 3-day treatment with 50 mM N-acetylglucosamine (NAG) and the following Percoll density gradient centrifugation after gametocyte production [Tanaka T Q, et al., Molecular and Biochemical Parasitology, 2011, 111: 160-163], Gametocytes of HB3 and Dd2 strains were produced and then set up for assay in a similar process. HepG2 cells (ATCC, cat. no. 77400) were cultured in 175-cm^2 tissue culture flasks with 30 ml growth medium at 37° C. in a 5% CO2 humidified atmosphere. Growth medium was made with Dulbecco's Modified Eagle Medium with 10% fetal bovine serum (FBS). Growth medium was replaced every other day and cells were passed at 75% confluence.
Compound screening experiments were performed as previously described [Tanaka T Q et al., Molecular and Biochemical Parasitology, 2013, 3188: 20-25], Briefly, 2.5 μl/well incomplete medium was dispensed into each well of 1,536-well plates using the Multidrop Combi followed by 23 nl compound transferring using the NX-TR Pintool (WAKO Scientific Solutions, San Diego, Calif.). 2.5 μl/well of gametocytes was dispensed with a seeding density of 20,000 cells/well using the Multidrop Combi. The assay plates were incubated for 72 h at 37° C. with 5% CO2. After addition of 5 μl/well of 2× AlamarBlue dye (Life Technologies, cat. no. DALI 100), the plates were incubated for 24 h at 37° C. with 5% CO2 and were read in a fluorescence detection mode (Ex=525 nm, Em=598 nm) on a ViewLux plate reader (PerkinElmer).
Stage III-V gametocytes (blood stage P. falciparum parasites) were enriched with treatment with 50 mM N-acetylglucosamine (NAG) and Percoll density gradient centrifugation as described previously^1. Briefly, 2.5 μl/well incomplete medium was dispensed into each well of 1,536-well plates using the Multidrop Combi followed by 23 nl compound transfer using the NX-TR Pintool (WAKO Scientific Solutions, San Diego, Calif.). Then, 2.5 μl/well of gametocytes was dispensed with a seeding density of 20,000 cells/well using the Multidrop Combi. The assay plates were incubated for 72 h at 37° C. with 5% CO2. After addition of 5 μl/well of 2× AlamarBlue dye (Life Technologies, cat. no. DALI 100), the plates were incubated for 24 h at 37° C. with 5% CO2 and then were read in a fluorescence detection mode (Ex=525 nm, Em=598 nm) on a ViewLux plate reader (PerkinElmer).

CNC(=O)c1ccc(-n2c(=O)ccc3cnc4ccc(-c5ccc(Cl)cc5)cc4c32)c(C)c1 [Compound 112]
EC50 [1]: 76.8 nM | mTOR (mTOR): 3.581 µM | Sol @ pH 7.4 (Solubility at pH 7.4): 5 ug/mL | Microsomal Stability (rat) T1/2 [2]: 5 min | EC50 [3]: 179 nM

O=C(c1ccc(-n2c(=O)ccc3c[n+]([O-])c4ccc(-c5ccc(Cl)cc5)cc4c32)cc1)N1CCOCC1 [Compound 148]
EC50 [1]: 601 nM | mTOR (mTOR): 18.17 µM | Sol @ pH 7.4 (Solubility at pH 7.4): 21.8 ug/mL | Microsomal Stability (rat) T1/2 [2]: >30.0 min | EC50 [3]: 4580 nM

O=C(c1ccc(-n2c(=O)ccc3cnc4ccc(-c5ccc(Cl)cc5)cc4c32)cc1)N1C2CCCC1CC2 [Compound 137]
EC50 [1]: 188 nM | mTOR (mTOR): 1.518 µM | Sol @ pH 7.4 (Solubility at pH 7.4): <1.0 ug/mL | Microsomal Stability (rat) T1/2 [2]: 1.6 min | EC50 [3]: 1000 nM

O=C(c1ccc(-n2c(=O)ccc3cnc4ccc(-c5ccc(O)cc5)cc4c32)cc1)N1CCOCC1 [Compound 119]
EC50 [1]: 7.55 nM | mTOR (mTOR): 0.07539 µM | Sol @ pH 7.4 (Solubility at pH 7.4): <1.0 ug/mL | Microsomal Stability (rat) T1/2 [2]: 18.4 min | EC50 [3]: 32.4 nM

CC(=O)n1c(=O)n(-c2cccc(C#N)c2)c2c3cc(-c4ccc(Cl)cc4)ccc3ncc21 [Compound 405]
EC50 [1]: 298 nM | mTOR (mTOR): 100 µM | Sol @ pH 7.4 (Solubility at pH 7.4): <0.1 ug/mL | Microsomal Stability (rat) T1/2 [2]: 2.4 min | EC50 [3]: 666 nM

Cn1c(=O)n(-c2ccc(N3CCNCC3)c(C#N)c2)c2c3cc(-c4ccc(Cl)cc4)ccc3ncc21 [Compound 406]
EC50 [1]: 8.46 nM | mTOR (mTOR): 0.2165 µM | Sol @ pH 7.4 (Solubility at pH 7.4): <1 ug/mL | Microsomal Stability (rat) T1/2 [2]: 19.4 min | EC50 [3]: 13.1 nM

Cc1ccc(C#N)cc1-n1c(=O)n(C)c2cnc3ccc(-c4ccc(Cl)c(C#N)c4)cc3c21 [Compound 410]
EC50 [1]: 2.49 nM | mTOR (mTOR): 100 µM | Sol @ pH 7.4 (Solubility at pH 7.4): 0 ug/mL | EC50 [3]: 36.3 nM

Cn1c(=O)n(-c2cccc(C#N)c2)c2c3cc(-c4ccc(Cl)cc4)ccc3ncc21 [Compound 398]
EC50 [1]: 105 nM | mTOR (mTOR): 2.471 µM | Sol @ pH 7.4 (Solubility at pH 7.4): <1.0 ug/mL | Microsomal Stability (rat) T1/2 [2]: >30.0 min | EC50 [3]: 194 nM

O=C(c1ccc(-n2c(=O)ccc3cnc4ccc(-c5ccc(Cl)c(O)c5)cc4c32)cc1)N1CCOCC1 [Compound 114]
EC50 [1]: 6.95 nM | mTOR (mTOR): 0.4313 µM | Sol @ pH 7.4 (Solubility at pH 7.4): <1.0 ug/mL | Microsomal Stability (rat) T1/2 [2]: 23.3 min | EC50 [3]: 13.6 nM

CCN(CC)Cc1ccc(-c2ccc3ncc4ccc(=O)n(-c5ccc(C(=O)N6CCOCC6)cc5)c4c3c2)cc1 [Compound 175]
EC50 [1]: 731 nM | mTOR (mTOR): 11.78 µM | Sol @ pH 7.4 (Solubility at pH 7.4): 66.62 ug/mL | Microsomal Stability (rat) T1/2 [2]: >30.00 min | EC50 [3]: 1620 nM

Cc1ccc(C#N)cc1-n1c(=O)n(C)c2cnc3ccc(-c4ccc(F)cc4)cc3c21 [Compound 411]
EC50 [1]: 61.4 nM | mTOR (mTOR): 100 µM | Sol @ pH 7.4 (Solubility at pH 7.4): 0 ug/mL | EC50 [3]: 109 nM

O=C(c1ccc(-n2c(=O)ccc3cnc4ccc(-c5ccc(Cl)cc5)nc4c32)cc1)N1CCOCC1 [Compound 151]
EC50 [1]: 19.1 nM | mTOR (mTOR): 3.72 µM | Sol @ pH 7.4 (Solubility at pH 7.4): <1.0 ug/mL | Microsomal Stability (rat) T1/2 [2]: 3.5 min | EC50 [3]: 52.7 nM

O=C(O)c1cc(-c2ccc3ncc4ccc(=O)n(-c5ccc(C(=O)N6CCOCC6)cc5)c4c3c2)ccc1Cl [Compound 117]
EC50 [1]: 14400 nM | mTOR (mTOR): 4.734 µM | Sol @ pH 7.4 (Solubility at pH 7.4): >80.0 ug/mL | Microsomal Stability (rat) T1/2 [2]: >30.0 min | Gametocyte EC50 [3]: Inactive

O=C(c1ccc(-n2c(=O)ccc3cnc4ccc(-c5ccc(Cl)cc5)cc4c32)cc1)N(C1CCCCC1)C1CC1 [Compound 142]
EC50 [1]: 13800 nM | mTOR (mTOR): 46.17 µM | Sol @ pH 7.4 (Solubility at pH 7.4): <1.0 ug/mL | Microsomal Stability (rat) T1/2 [2]: 1.4 min | EC50 [3]: 50000 nM

NC(=O)c1cc(-c2ccc3ncc4ccc(=O)n(-c5ccc(C(=O)N6CCOCC6)cc5)c4c3c2)ccc1Cl [Compound 149]
EC50 [1]: 409 nM | mTOR (mTOR): 6.235 µM | Sol @ pH 7.4 (Solubility at pH 7.4): 8.8 ug/mL | Microsomal Stability (rat) T1/2 [2]: >30.0 min | EC50 [3]: 840 nM

CCNC(=O)c1cc(-c2ccc3ncc4ccc(=O)n(-c5ccc(C(=O)N6CCOCC6)cc5)c4c3c2)ccc1Cl [Compound 150]
EC50 [1]: 3820 nM | mTOR (mTOR): 7.873 µM | Sol @ pH 7.4 (Solubility at pH 7.4): 3.9 ug/mL | Microsomal Stability (rat) T1/2 [2]: 2.4 min | EC50 [3]: 6230 nM

NCc1ccc(-c2ccc3ncc4ccc(=O)n(-c5ccc(C(=O)N6CCOCC6)cc5)c4c3c2)cc1 [Compound 111]
EC50 [1]: 241 nM | mTOR (mTOR): 1.135 µM | Sol @ pH 7.4 (Solubility at pH 7.4): 19.8 ug/mL | Microsomal Stability (rat) T1/2 [2]: >30.0 min | EC50 [3]: 285 nM

O=C(c1ccc(-n2c(=O)ccc3cnc4ccc(Br)cc4c32)cc1)N1CCOCC1 [Compound 337]
EC50 [1]: 1570 nM | mTOR (mTOR): 3.229 µM | Sol @ pH 7.4 (Solubility at pH 7.4): >68.0 ug/mL | Microsomal Stability (rat) T1/2 [2]: >30.0 min | EC50 [3]: 6230 nM

N#Cc1cccc(-n2c(=O)[nH]c3cnc4ccc(-c5ccc(Cl)cc5)cc4c32)c1 [Compound 397]
EC50 [1]: 268 nM | mTOR (mTOR): Inactive | Sol @ pH 7.4 (Solubility at pH 7.4): <1.0 ug/mL | Microsomal Stability (rat) T1/2 [2]: >30.0 min | EC50 [3]: 232 nM

CC(C)(N)c1ccc(-c2ccc3ncc4ccc(=O)n(-c5ccc(C(=O)N6CCOCC6)cc5)c4c3c2)cc1 [Compound 187]
EC50 [1]: 1600 nM | mTOR (mTOR): 0.7246 µM | Sol @ pH 7.4 (Solubility at pH 7.4): 0 ug/mL | EC50 [3]: 4590 nM

Cc1ccc(C#N)cc1-n1c(=O)n(C)c2cnc3ccc(-c4ccc(F)c(C#N)c4)cc3c21 [Compound 408]
EC50 [1]: 10 nM | mTOR (mTOR): 100 µM | Sol @ pH 7.4 (Solubility at pH 7.4): 0 ug/mL | EC50 [3]: 305 nM

COc1cc(-c2ccc3ncc4c(c3c2)n(-c2cc(C#N)ccc2C)c(=O)n4C)ccc1Cl [Compound 407]
EC50 [1]: 52.4 nM | mTOR (mTOR): 50 µM | Sol @ pH 7.4 (Solubility at pH 7.4): <1 ug/mL | Microsomal Stability (rat) T1/2 [2]: >30 min | EC50 [3]: 104 nM

COc1cc(-c2ccc3ncc4c(c3c2)n(-c2cc(C#N)ccc2C)c(=O)n4C)ccc1F [Compound 409]
EC50 [1]: 52.9 nM | mTOR (mTOR): 50 µM | Sol @ pH 7.4 (Solubility at pH 7.4): 0 ug/mL | EC50 [3]: 106 nM

CC1CC1NC(=O)c1ccc(-n2c(=O)ccc3cnc4ccc(-c5ccc(Cl)cc5)cc4c32)cc1 (stereo not shown) [Compound 176]
EC50 [1]: 90.2 nM | mTOR (mTOR): 0.5562 µM | Sol @ pH 7.4 (Solubility at pH 7.4): <0.10 ug/mL | EC50 [3]: 283 nM

COc1cc(C(=O)NC2CC2)ccc1-n1c(=O)ccc2cnc3ccc(-c4ccc(CN(C)C)cc4)cc3c21 [Compound 190]
mTOR (mTOR): 10.68 µM | Sol @ pH 7.4 (Solubility at pH 7.4): >77 ug/mL | Microsomal Stability (rat) T1/2 [2]: >30 min | EC50 [3]: 248 nM

Cc1ccc(C#N)cc1-n1c(=O)n(C)c2cnc3ccc(-c4cccc(C#N)c4)cc3c21 [Compound 412]
EC50 [1]: 6.57 nM | mTOR (mTOR): 100 µM | Sol @ pH 7.4 (Solubility at pH 7.4): 0 ug/mL | EC50 [3]: 39.9 nM

COc1cccc(-c2ccc3ncc4ccc(=O)n(-c5ccc(C(=O)N6CCOCC6)cc5)c4c3c2)c1 [Compound 123]
EC50 [1]: 145 nM | mTOR (mTOR): 0.857 µM | Microsomal Stability (rat) T1/2 [2]: 7.3 min | EC50 [3]: 442 nM

Cn1c(=O)n(-c2cccc(C#N)c2)c2c3cc(-c4ccc(CCN)cc4)ccc3ncc21 [Compound 413]
EC50 [1]: 29.4 nM | mTOR (mTOR): 2.73 µM | Sol @ pH 7.4 (Solubility at pH 7.4): 0 ug/mL | EC50 [3]: 54 nM
